A short description of series [1]: Microsomal stability (rat). The format is in vitro ADME. To be noted: rat microsomes.
A short description of another series: Solubility pH 7.4. Format: physicochemical. To be noted: aqueous buffer.
Series [2] deals with Asexual parasites of P. falciparum strain 3D7. Briefly: In vitro drug activity on asexual parasites (SYBR Green assay). Format: cell-based. The settings on record: Plasmodium falciparum, P. falciparum 3D7 asexual stage, 72 h, read-out: Asexual EC50. Put shortly: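 3D7 asexual cultures at 0.5% parasitemia and 2% hematocrit were exposed to drug (DMSO <0.5%) for 72 h under standard culture conditions, in duplicate with no-drug and RBC-only controls. After freeze-thaw lysis, SYBR Green I lysis buffer was added for 30 min at room temperature; fluorescence was read at 490 nm excitation/520 nm emission.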

Setting [3] is: Table 1, read-out: Microsomal Stability (rat) T1/2.
Setting [4] is: Table 3, read-out: Microsomal Stability (rat) T1/2.
Where [5] appears, read: Table 2, read-out: Microsomal Stability (rat) T1/2.

From patent publication US20210188843A1, “QUINOLINE COMPOUNDS AND THEIR PREPARATION AND USE AS ANTIMALARIAL AGENTS” (The United States of America,as represented by the …, priority 2018, published 2021) come the findings set out here.

The structures appear in SMILES notation. In brackets after ≈: the same amount, converted by molar mass. Where two headings read alike, the source gives them in different places.

With `Cc1cc(N2CCN(S(C)(=O)=O)CC2)c(C#N)cc1-n1c(=N)n(C)c2cnc3ccc(-c4ccc(Cl)cc4)cc3c21` [Compound 118, 5-(8-(4-chlorophenyl)-2-imino-3-methyl-2,3-dihydro-1H-imidazo[4,5-c]quinolin-1-yl)-4-methyl-2-(4-(methylsulfonyl)piperazin-1-yl)benzonitrile], the half-life in series [1] (setting [3]) was above 30 min. Further, in “Solubility pH 7.4” (Table 1), the solubility (usually the concentration that dissolves in the medium under given conditions) was below 1 µg/mL. In addition, the EC50 – broadly, the concentration giving half of the maximal effect – in series [2] (Table 1) was 135 nM.

In the case of `Cc1cc(N2CCNCC2)c(C#N)cc1-n1c(=N)n(C)c2cnc3ccc(-c4ccc(Cl)cc4)cc3c21` [Compound 14, 5-(8-(4-chlorophenyl)-2-imino-3-methyl-2,3-dihydro-1H-imidazo[4,5-c]quinolin-1-yl)-4-methyl-2-(piperazin-1-yl)benzonitrile], in series [1] (setting [3]), the half-life is above 30 min. The same molecule came in with a solubility in “Solubility pH 7.4” (Table 1) below 1 µg/mL. Also, the concentration giving a half-maximal response (EC50) in series [2] (Table 1) was found to be 175 nM.

With `Cn1c(=N)n(-c2nccc(N)n2)c2c3cc(-c4ccc(Cl)cc4)ccc3ncc21`, in series [1] (setting [4]), the half-life is above 30 min. In the series “Solubility pH 7.4” (Table 3), this molecule yielded a solubility below 1 µg/mL. For the same molecule, in series [2] (Table 3), the EC50 is 1860 nM.

On to `Cc1ccc(C#N)cc1-n1c(=N)n(C)c2cnc3ccc(-c4ccc(Cl)c(N)c4)cc3c21` [Compound 40, 3-(8-(3-amino-4-chlorophenyl)-2-imino-3-methyl-2,3-dihydro-1H-imidazo[4,5-c]quinolin-1-yl)-4-methylbenzonitrile], for which the half-life in series [1] (setting [3]) was above 30 min. The solubility in the series “Solubility pH 7.4” (Table 1) is above 43 µg/mL. Further, the EC50 in series [2] (Table 1) turned out to be 30.8 nM.

For `Cc1cc(N2CCN(C(N)=O)CC2)c(C#N)cc1-n1c(=N)n(C)c2cnc3ccc(-c4ccc(Cl)cc4)cc3c21` [Compound 126, 4-(4-(8-(4-chlorophenyl)-2-imino-3-methyl-2,3-dihydro-1H-imidazo[4,5-c]quinolin-1-yl)-2-cyano-5-methylphenyl)piperazine-1-carboxamide], the half-life in series [1] (setting [3]) is above 30 min. For the same molecule, the concentration in solution in “Solubility pH 7.4” (Table 1) (solubility) came to 2.2 µg/mL (≈ 3.99 µM). The EC50 in series [2] (Table 1) is 14.5 nM.

On to `Cc1ccc(C#N)cc1-n1c(=N)n(C)c2cnc3ccc(-c4ccc(N)nc4)cc3c21` [Compound 2, 3-(8-(6-aminopyridin-3-yl)-2-imino-3-methyl-2,3-dihydro-H-imidazo[4,5-c]quinolin-1-yl)-4-methylbenzonitrile], for which the half-life in series [1] (setting [3]) was above 30 min. In addition, the solubility in the series “Solubility pH 7.4” (Table 1) is above 60 µg/mL. For the same molecule, in series [2] (Table 1), the 50% effective concentration (EC50) stood at 5.31 nM.

In the case of `N#Cc1cccc(-n2c(=N)ccc3cnc4ccc(-c5ccc(Cl)cc5)cc4c32)c1`, in series [1] (setting [5]), the half-life is above 30 min. Besides, in the series “Solubility pH 7.4” (Table 2), the solubility came to 25.9 µg/mL (≈ 63.7 µM). In addition, the EC50 in series [2] (Table 2) amounted to 186 nM.

Consider `CCCCOC(=O)/N=c1\n(C)c2cnc3ccc(-c4ccc(Cl)cc4)cc3c2n1-c1cc(C#N)ccc1C` [Compound 89, butyl (E)-(8-(4-chlorophenyl)-1-(5-cyano-2-methylphenyl)-3-methyl-1,3-dihydro-2H-imidazo[4,5-c]quinolin-2-ylidene)carbamate], for which the half-life in series [1] (setting [3]) came out at 6.2 min. The solubility in the series “Solubility pH 7.4” (Table 1) is below 1 µg/mL. For the same molecule, in series [2] (Table 1), the EC50 is 601 nM.

For the molecule `Cc1cc(C#N)cc(-n2c(=N)n(C)c3cnc4ccc(-c5ccc(Cl)cc5)cc4c32)c1` [Compound 71, 3-(8-(4-chlorophenyl)-2-imino-3-methyl-2,3-dihydro-1H-imidazo[4,5-c]quinolin-1-yl)-5-methylbenzonitrile], in series [1] (setting [3]), the half-life is above 30 min. Moreover, the solubility in the series “Solubility pH 7.4” (Table 1) was below 1 µg/mL. The EC50 in series [2] (Table 1) amounted to 511 nM.

As to `Cn1c(=N)n(-c2ccccc2F)c2c3cc(-c4ccc(Cl)cc4)ccc3ncc21` [Compound 80, 8-(4-chlorophenyl)-1-(2-fluorophenyl)-3-methyl-1,3-dihydro-2H-imidazo[4,5-c]quinolin-2-imine], the half-life in series [1] (setting [3]) is above 30 min. For the same molecule, the concentration in solution in the series “Solubility pH 7.4” (Table 1) (solubility) came to 12.4 µg/mL (≈ 30.8 µM). In addition, the EC50 in series [2] (Table 1) is 955 nM.

Consider `Cn1c(=N)n(-c2nccc(O)n2)c2c3cc(-c4ccc(Cl)cc4)ccc3ncc21`, for which the half-life in series [1] (setting [4]) is above 30 min. For the same molecule, the solubility in “Solubility pH 7.4” (Table 3) was below 1 µg/mL. Further, in series [2] (Table 3), the concentration for a half-maximal effect (EC50) amounted to 43100 nM.

For `COc1ccc(-n2c(=N)n(C)c3cnc4ccc(-c5ccc(Cl)cc5)cc4c32)cc1C#N` [Compound 84, 5-(8-(4-chlorophenyl)-2-imino-3-methyl-2,3-dihydro-1H-imidazo[4,5-c]quinolin-1-yl)-2-methoxybenzonitrile], the half-life in series [1] (setting [3]) was above 30 min. Also, the solubility in “Solubility pH 7.4” (Table 1) was below 1 µg/mL. The EC50 in series [2] (Table 1) came to 658 nM.

With `Cn1c(=N)n(-c2cncnc2)c2c3cc(-c4ccc(Cl)c(OC(F)(F)F)c4)ccc3ncc21`, the half-life in series [1] (setting [4]) is above 30 min. Further, the solubility in the series “Solubility pH 7.4” (Table 3) was below 1 µg/mL. Besides, the EC50 in series [2] (Table 3) is 315 nM.

`Cn1c(=N)n(-c2ccccc2)c2c3cc(-c4ccc(Cl)cc4)ccc3ncc21` [Compound 63, 8-(4-chlorophenyl)-3-methyl-1-phenyl-1,3-dihydro-2H-imidazo[4,5-c]quinolin-2-imine]: in series [1] (setting [3]), the half-life is above 30 min. In the series “Solubility pH 7.4” (Table 1), this molecule gave a solubility of 5.7 µg/mL (≈ 14.8 µM). Further, the EC50 in series [2] (Table 1) amounted to 1040 nM.

`Cn1c(=N)n(-c2cncc(C#N)c2)c2c3cc(-c4ccc(Cl)cc4)ccc3ncc21` [Compound 45, 5-(8-(4-chlorophenyl)-2-imino-3-methyl-2,3-dihydro-1H-imidazo[4,5-c]quinolin-1-yl)nicotinonitrile]: the half-life in series [1] (setting [3]) is above 30 min. The same molecule displayed a solubility in the series “Solubility pH 7.4” (Table 1) of 7.8 µg/mL (≈ 19 µM). The EC50 in series [2] (Table 1) came out at 130 nM.

On to `Cn1c(=N)n(-c2ccnc(N)n2)c2c3cc(-c4ccc(Cl)cc4)ccc3ncc21`, for which the half-life in series [1] (setting [4]) was above 30 min. Further, the solubility in “Solubility pH 7.4” (Table 3) worked out at 3.4 µg/mL (≈ 8.46 µM). In series [2] (Table 3), the concentration giving a half-maximal response (EC50) was found to be 140 nM.

For `Cc1nc(N2CCNCC2)c(C#N)cc1-n1c(=N)n(C)c2cnc3ccc(-c4ccc(Cl)cc4)cc3c21` [Compound 47, 5-(8-(4-chlorophenyl)-2-imino-3-methyl-2,3-dihydro-1H-imidazo[4,5-c]quinolin-1-yl)-6-methyl-2-(piperazin-1-yl)nicotinonitrile], the half-life in series [1] (setting [3]) is above 30 min. The concentration in solution in the series “Solubility pH 7.4” (Table 1) (solubility) was 6 µg/mL (≈ 11.8 µM). The EC50 in series [2] (Table 1) turned out to be 69.7 nM.

`Cn1c(=N)n(-c2nccc(N)n2)c2c3cc(-c4cccc(F)c4)ccc3ncc21`: the half-life in series [1] (setting [4]) was above 30 min. In addition, in the series “Solubility pH 7.4” (Table 3), the solubility was 5.2 µg/mL (≈ 13.5 µM). In addition, the EC50 in series [2] (Table 3) was 1570 nM.

Take `CC(=O)c1cccc(-n2c(=N)n(C)c3cnc4ccc(-c5ccc(Cl)cc5)cc4c32)c1` [Compound 74, 1-(3-(8-(4-chlorophenyl)-2-imino-3-methyl-2,3-dihydro-1H-imidazo[4,5-c]quinolin-1-yl)phenyl)ethan-1-one]: the half-life in series [1] (setting [3]) was above 30 min. The molecule further had a solubility in the series “Solubility pH 7.4” (Table 1) above 42 µg/mL. Also, the EC50 in series [2] (Table 1) was found to be 445 nM.

For the molecule `COC(=O)/N=c1\n(C)c2cnc3ccc(-c4cccc(F)c4)cc3c2n1-c1cc(C#N)c(N2CCN(C)CC2)cc1C` [Compound 146, Methyl (E)-(1-(5-cyano-2-methyl-4-(4-methylpiperazin-1-yl)phenyl)-8-(3-fluorophenyl)-3-methyl-1,3-dihydro-2H-imidazo[4,5-c]quinolin-2-ylidene)carbamate], in series [1] (setting [3]), the half-life was found to be 21.2 min. Also, in the series “Solubility pH 7.4” (Table 1), the solubility was found to be 14.5 µg/mL (≈ 25.7 µM). Besides, the half-maximal effective concentration (EC50) in series [2] (Table 1) is 62.7 nM.

Consider `Cc1cc(N2CCN(C(=O)OC(C)(C)C)CC2)c(C#N)cc1-n1c(=N)n(C)c2cnc3ccc(-c4ccc(Cl)cc4)cc3c21` [Compound 15, tert-butyl 4-(4-(8-(4-chlorophenyl)-2-imino-3-methyl-2,3-dihydro-1H-imidazo[4,5-c]quinolin-1-yl)-2-cyano-5-methylphenyl)piperazine-1-carboxylate], for which, in series [1] (setting [3]), the half-life was above 30 min. Further, the solubility in “Solubility pH 7.4” (Table 1) was below 1 µg/mL. For the same molecule, the EC50 in series [2] (Table 1) amounted to 591 nM.

In the case of `CCC(=O)N1CCC(n2c(=N)n(C)c3cnc4ccc(-c5ccc(Cl)cc5)cc4c32)CC1` [Compound 104, 1-(4-(8-(4-chlorophenyl)-2-imino-3-methyl-2,3-dihydro-1H-imidazo[4,5-c]quinolin-1-yl)piperidin-1-yl)propan-1-one], in series [1] (setting [3]), the half-life was above 30 min. The solubility in “Solubility pH 7.4” (Table 1) is above 44 µg/mL. For the same molecule, the EC50 in series [2] (Table 1) came to 411 nM.

On to `Cc1ccc(-n2c(=N)n(C)c3cnc4ccc(-c5ccc(Cl)cc5)cc4c32)cc1C#N` [Compound 70, 5-(8-(4-chlorophenyl)-2-imino-3-methyl-2,3-dihydro-1H-imidazo[4,5-c]quinolin-1-yl)-2-methylbenzonitrile], for which the half-life in series [1] (setting [3]) is above 30 min. In addition, the solubility in “Solubility pH 7.4” (Table 1) is below 1 µg/mL. In series [2] (Table 1), the EC50 is 443 nM.

Take `Cc1ccc(C#N)cc1-n1/c(=N/S(N)(=O)=O)n(C)c2cnc3ccc(-c4ccc(N)nc4)cc3c21` [Compound 101, (8-(6-aminopyridin-3-yl)-1-(5-cyano-2-methylphenyl)-3-methyl-1,3-dihydro-2H-imidazo[4,5-c]quinolin-2-ylidene)sulfonamide]: the half-life in series [1] (setting [3]) is above 30 min. The solubility in “Solubility pH 7.4” (Table 1) stood at 2.2 µg/mL (≈ 4.54 µM). Besides, in series [2] (Table 1), the EC50 was determined as 3.07 nM.

With `Cc1ccc([S+](=O)([O-])/N=c2\ccc3cnc4ccc(-c5ccc(Cl)cc5)cc4c3n2-c2ccc(C(=O)NC3CC3)cc2)cc1`, the half-life in series [1] (setting [5]) is 11.5 min. The molecule also displayed a solubility in “Solubility pH 7.4” (Table 2) below 1 µg/mL. The EC50 in series [2] (Table 2) was 59 nM.

As for `Cc1ncncc1-n1c(=N)n(C)c2cnc3ccc(-c4ccc(Cl)c(OC(F)(F)F)c4)cc3c21`, the half-life in series [1] (setting [4]) was above 30 min. In the series “Solubility pH 7.4” (Table 3), the concentration in solution (solubility) was 16 µg/mL (≈ 33 µM). In addition, in series [2] (Table 3), the concentration giving a half-maximal response (EC50) came out at 158 nM.

For `N=c1ccc2cnc3ccc(-c4ccc(Cl)cc4)cc3c2n1-c1cccc(C(F)(F)F)c1`, the half-life in series [1] (setting [5]) was above 30 min. This molecule also yielded a solubility in “Solubility pH 7.4” (Table 2) of 11.5 µg/mL (≈ 25.6 µM). Further, the EC50 in series [2] (Table 2) amounted to 213 nM.
